The values below are quoted from earlier work in US20230106731A1, “INHIBITORS OF MUTANT FAMILY TYROSINE-KINASES” (Spectrum Pharmaceuticals, Inc., priority 2017, published 2023).

The structures appear in SMILES notation.

For data set [1], the system named is EGFR/HER2 exon 20 mutant. Conditions: EGFR/HER2 exon 20 mutant patients.
In data set [2] the test system is EGFR exon 20 driven NSCLC.

For `CS(=O)(=O)CCNCc1ccc(-c2ccc3ncnc(Nc4ccc(OCc5cccc(F)c5)c(Cl)c4)c3c2)o1` [lapatinib], the activity in patients entry in data set [1] is recorded as “limited activity”.
As for `CCOc1cc2ncc(C#N)c(Nc3ccc(OCc4ccccn4)c(Cl)c3)c2cc1NC(=O)/C=C/CN(C)C` [neratinib], the activity in patients result in data set [1] is reported as “limited activity”.
With `C=CC(=O)Nc1cc(Nc2nccc(-c3cn(C)c4ccccc34)n2)c(OC)cc1N(C)CCN(C)C` [osimertinib], the “activity in patient derived xenograft model” value in data set [2] is given as “minimal activity”.
